These results are taken from PMC4039119 (Oncotarget, 2014).

Where two headings read alike, the source gives them in different places.

Assay [1] concerns normal human melanocyte epithelial (PIG1) cells. The experiment in a line: Sulforhodamine B cell survival assay in normal cells. In kind it is cell-based. The settings on record: 50nM CuB for 72h. Here is the method:
The cells were fixed with ice cold 10% trichloroacetic acid, washed and stained with sulforhodamine B (SRB) dye and the optical density was measured in Tris base solution using plate reader, after washing the dye with 1% acetic acid solution as described by us previously. […]
vivo breast tumor growth suppression – Gupta et al
24, 48h and 72h. Cell survival was measured with sulforhodamine B assay to estimate the IC50 values. The ex periments were repeated at least three times with 4 replicates in each ex periment. B. Comparison of the cell survival of PIG1 and the breast cancer cell lines at 50nM […]
(1 picture or pasted object on this page, not shown here)

The subject of assay [2] is MDA-MB-231, SKBR3, MCF-7 and 4T-1 breast cancer cells. As to the kind of experiment: Sulforhodamine B cell survival assay, range over the breast cancer cell panel. It counts as cell-based. Here is the method:
The cells were fixed with ice cold 10% trichloroacetic acid, washed and stained with sulforhodamine B (SRB) dye and the optical density was measured in Tris base solution using plate reader, after washing the dye with 1% acetic acid solution as described by us previously.

A further assay has as its system MCF-7 cells. As to the kind of experiment: Annexin V-FITC apoptosis assay. It counts as cell-based, human. The following applies: MCF-7, 75nM CuB for 72h. Here is the method:
(§1) Apoptosis assay was performed using a kit (BD Biosciences, CA) according to manufacturer's instructions. Approximately, 0.1x10^6 cells were plated in 6-well plate and left overnight for attachment. […] A 5.0μl of Annexin V-FITC and 5μl of propidium iodide (BD Biosciences, San Jose, CA) were added to the 100μl of suspension and incubated for additional 20 min at room temperature in dark. Total sample volume was made up to 200μl with binding buffer. Samples were analyzed by flow cytometer after vortexing (Accuri C6, MI).

Another assay has as its system MDA-MB-231 cells. The experiment in a line: Annexin V-FITC apoptosis assay. It counts as cell-based, human. The settings on record: MDA-MB-231, 75nM CuB for 72h. Here is the method:
as §1

The test system of a further assay is SKBR3 cells. The experiment in a line: Annexin V-FITC apoptosis assay. It counts as cell-based, human. The following applies: SKBR3, 75nM CuB for 72h. Here is the method:
as §1

The next assay has as its system 4T-1 cells. The experiment in a line: Annexin V-FITC apoptosis assay. The settings on record: 4T-1, 75nM CuB for 72h. It counts as cell-based, murine. Here is the method:
as §1

Assay [3] deals with MDA-MB-231 orthotopic tumors. The experiment in a line: Orthotopic breast tumor therapy model. It counts as in vivo, female athymic nude mice. The settings on record: 2mg/kg oral gavage every day. Here is the method:
Female athymic nude mice (4-6 weeks old) were obtained from Jackson Laboratories (Ban harbor, Maine, USA) and maintained under specific pathogen-free conditions. The use of athymic nude mice and their treatment was approved by the Institutional Animal Care and Use Committee (IACUC), Texas Tech University Health Sciences Center, and the experiments were conducted in strict compliance with the regulations. Mice were given antioxidant-free AIN-76A special diet (TestDiet, Richmond, IN) one week before starting the experiment. Exponentially growing MDA-MB-231 cells were harvested, washed and resuspended in PBS at a density of 50x10^6 cells per ml with 80% matrigel (BD Biosciences, San Jose, CA). A suspension of 0.1mL containing 5x10^6 cells was injected in the mammary fat pads of the recipient mice. Tumor volumes and animal weights were measured twice a week as described by us previously. When the tumors reached a size of about 50-80 mm^3, mice were randomly segregated into two groups with ten mice in each group. […] Mice were sacrificed on day 60 by CO2 overdose and death was confirmed by cervical dislocation in accordance with IACUC guidelines. The tumors were dissected out aseptically from each mouse, weighed and snap frozen in liquid-nitrogen for western blot analysis.

In another assay the test system is 4T-1 orthotopic tumors. As to the kind of experiment: Orthotopic breast tumor therapy model. It counts as in vivo, female BALB/c mice. The settings on record: 1mg/kg i.p. every third day. Here is the method:
In another experiment, female BALB/c mice (4-6 weeks old) were obtained from Jackson Laboratories (Ban harbor, Maine, USA) and maintained under controlled humidity and temperature conditions. The use of BALB/c mice and their treatment was approved by the Institutional Animal Care and Use Committee (IACUC), Texas Tech University Health Sciences Center, and the experiments were conducted in strict compliance with the regulations. Exponentially growing 4T-1 cells were harvested, washed and re-suspended in PBS at a density of 1x10^6 cells per ml with 50% matrigel. A suspension of 0.1mL containing 0.1x10^6 cells was injected in the mammary fat pads of the recipient mice. Tumor volumes and animal weights were measured every alternate day as described by us previously. When the tumors reached a size of about 30-50 mm3, mice were randomly segregated into two groups with eight mice in each group. […] The control mice received vehicle alone. Mice were sacrificed on day 28 by CO2 overdose and death was confirmed by cervical dislocation in accordance with IACUC guidelines. The tumors were removed aseptically from each mouse, weighed and snap frozen in liquid-nitrogen for further analysis.

A further assay deals with melanoma tumors. The settings on record: 1mg/kg intraperitoneal thrice a week, after 23 days; cited from earlier work.
The subject of assay [4] is non-small lung carcinoma tumor xenografts. The settings on record: 1mg/kg every alternate day for 5 weeks; cited from earlier work.
The subject of assay [5] is MDA-MB-231 orthotopic tumor. The following applies: after 36 days, cited from earlier work.
For assay [6], the system named is ITGA6 in MDA-MB-231 cells. The experiment in a line: Western blot of ITGA6 expression after TGFβ treatment. It counts as cell-based, human. Here is the method: (§2) Whole cell lysates were prepared using 4% (w/v) CHAPS buffer while tumor lysates were prepared by homogenizing the tumors in RIPA lysis buffer. Proteins from control and treated samples were subjected to SDS-PAGE and the segregated proteins were transferred to PVDF membrane. The membrane was developed as described by us previously. All antibodies used in the study were purchased from Cell signaling except HER2 (Abcam, Cambridge, MA), ITGB4 (Santacruz Biotechnology, Dallas, TX), TWIST (Santacruz Biotechnology, Dallas, TX), phospho Akt (S473) (Santacruz Biotechnology, Dallas, TX) and Caspase 3 (Santacruz Biotechnology, Dallas, TX).
(Immunoblotting shows a protein as a band on a membrane.)

Another assay has as its system ITGA6 in 4T-1 cells. Described as above. In kind it is cell-based, murine. Here is the method: as §2

Regarding Cucurbitacin B [CuB], the “growth inhibition of PIG1 cells” value in assay [1] is 20-30%. Also, the “growth inhibition of cancer cell lines SKBR3, MDA-MB-231, MCF-7 and 4-T1” value in assay [2] (50nM CuB for 72h) is recorded as 50-70%. The half-inhibitory concentration (IC50) (commonly the concentration that gives 50% inhibition) in assay [2] (after 48 and 72 h of treatment) is 18 to 50 nM. Moreover, the “apoptosis induced (cells)” value is reported as “about 60%” in the assay on MCF-7 cells, “about 60%” in the assay on MDA-MB-231 cells, “about 80%” in the assay with SKBR3 cells and “about 60%” with 4T-1 cells. Further, in assay [3] (day 60), the “tumor volume reduction as compared to control” value came to 55%. Also, the “tumor volume in treated group” value is 111.3±18.4 mm^3 in [3] (day 60, n=10) and 1446.7±142.6 mm^3 in the assay on 4T-1 orthotopic tumors (day 28, n=8). Also, the “tumor weight less than control” value in assay [3] (tumors dissected at day 60) is reported as “about 53%”. For the same substance, in the assay on 4T-1 orthotopic tumors (day 28), the tumor weight reduction was found to be 27%. In the assay with melanoma tumors, the “suppression of tumor growth” value is reported as “about 50%”. The tumor volume reduction in [4] is 70%. The figures for the tumor volume suppression in [5] (0.5 mg/kg i.p.) and in [5] (1mg/kg i.p.) were 42% and 55%, respectively.

In the case of TGFβ, the “increase of ITGA6 expression” value (in [6]; in the assay with ITGA6 in 4T-1 cells) was “about 1.5 fold” each time.
